# System: Stress protein genes
# Experiment: DNA chip mRNA expression in yeast, stress protein genes (Table 6)
# Assay type: cell-based, Saccharomyces cerevisiae S288C
# Procedure, shortened: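 S. cerevisiae S288C grown at 25° C in YPD were exposed in log phase for two hours to one toxic chemical at a growth-inhibiting, non-lethal concentration; untreated cells served as control. Poly(A) mRNA was reverse-transcribed with Cy3/Cy5-dUTP and hybridized to a whole-genome yeast DNA chip at 65° C for over 12 hours; values are fluorescence ratios versus untreated.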
structure (smiles),measurement,setting,value
"COc1cc(CNC(=O)CCCCC=CC(C)C)ccc1O [(12), 8-methyl-N-vanillyl-6-nonenamide]",The level of expressed mRNA in the presence of chemical substance/The level of expressed mRNA in the absence of chemical substance,yeast gene YAL005C,1.2
same,The level of expressed mRNA in the presence of chemical substance/The level of expressed mRNA in the absence of chemical substance,yeast gene YAL015C,1.0
same,The level of expressed mRNA in the presence of chemical substance/The level of expressed mRNA in the absence of chemical substance,yeast gene YBL075C,1.1
same,The level of expressed mRNA in the presence of chemical substance/The level of expressed mRNA in the absence of chemical substance,yeast gene YBL093C,1.1
same,The level of expressed mRNA in the presence of chemical substance/The level of expressed mRNA in the absence of chemical substance,yeast gene YBR044C,0.8
same,The level of expressed mRNA in the presence of chemical substance/The level of expressed mRNA in the absence of chemical substance,yeast gene YBR054W,0.7
same,The level of expressed mRNA in the presence of chemical substance/The level of expressed mRNA in the absence of chemical substance,yeast gene YBR067C,1.0
same,The level of expressed mRNA in the presence of chemical substance/The level of expressed mRNA in the absence of chemical substance,yeast gene YBR072W,16.3
same,The level of expressed mRNA in the presence of chemical substance/The level of expressed mRNA in the absence of chemical substance,yeast gene YBR126C,1.3
same,The level of expressed mRNA in the presence of chemical substance/The level of expressed mRNA in the absence of chemical substance,yeast gene YBR169C,1.7
same,The level of expressed mRNA in the presence of chemical substance/The level of expressed mRNA in the absence of chemical substance,yeast gene YCL035C,1.5
same,The level of expressed mRNA in the presence of chemical substance/The level of expressed mRNA in the absence of chemical substance,yeast gene YCR021C,0.5
same,The level of expressed mRNA in the presence of chemical substance/The level of expressed mRNA in the absence of chemical substance,yeast gene YCR060W,1.7
same,The level of expressed mRNA in the presence of chemical substance/The level of expressed mRNA in the absence of chemical substance,yeast gene YCR083W,1.1
same,The level of expressed mRNA in the presence of chemical substance/The level of expressed mRNA in the absence of chemical substance,yeast gene YDL022W,1.2
same,The level of expressed mRNA in the presence of chemical substance/The level of expressed mRNA in the absence of chemical substance,yeast gene YDL025C,0.9
same,The level of expressed mRNA in the presence of chemical substance/The level of expressed mRNA in the absence of chemical substance,yeast gene YDR033W,1.0
same,The level of expressed mRNA in the presence of chemical substance/The level of expressed mRNA in the absence of chemical substance,yeast gene YDR077W,0.8
same,The level of expressed mRNA in the presence of chemical substance/The level of expressed mRNA in the absence of chemical substance,yeast gene YDR098C,1.3
same,The level of expressed mRNA in the presence of chemical substance/The level of expressed mRNA in the absence of chemical substance,yeast gene YDR155C,1.4
same,The level of expressed mRNA in the presence of chemical substance/The level of expressed mRNA in the absence of chemical substance,yeast gene YDR258C,1.8
same,The level of expressed mRNA in the presence of chemical substance/The level of expressed mRNA in the absence of chemical substance,yeast gene YDR293C,0.9
same,The level of expressed mRNA in the presence of chemical substance/The level of expressed mRNA in the absence of chemical substance,yeast gene YDR436W,0.9
same,The level of expressed mRNA in the presence of chemical substance/The level of expressed mRNA in the absence of chemical substance,yeast gene YDR513W,0.9
same,The level of expressed mRNA in the presence of chemical substance/The level of expressed mRNA in the absence of chemical substance,yeast gene YDR519W,1.7
same,The level of expressed mRNA in the presence of chemical substance/The level of expressed mRNA in the absence of chemical substance,yeast gene YEL030W,0.9
same,The level of expressed mRNA in the presence of chemical substance/The level of expressed mRNA in the absence of chemical substance,yeast gene YEL039C,0.6
same,The level of expressed mRNA in the presence of chemical substance/The level of expressed mRNA in the absence of chemical substance,yeast gene YER042W,1.1
same,The level of expressed mRNA in the presence of chemical substance/The level of expressed mRNA in the absence of chemical substance,yeast gene YER057C,1.5
same,The level of expressed mRNA in the presence of chemical substance/The level of expressed mRNA in the absence of chemical substance,yeast gene YER103W,1.9
same,The level of expressed mRNA in the presence of chemical substance/The level of expressed mRNA in the absence of chemical substance,yeast gene YER125W,0.7
same,The level of expressed mRNA in the presence of chemical substance/The level of expressed mRNA in the absence of chemical substance,yeast gene YFL014W,4.3
same,The level of expressed mRNA in the presence of chemical substance/The level of expressed mRNA in the absence of chemical substance,yeast gene YFL016C,1.0
same,The level of expressed mRNA in the presence of chemical substance/The level of expressed mRNA in the absence of chemical substance,yeast gene YFL020C,1.3
same,The level of expressed mRNA in the presence of chemical substance/The level of expressed mRNA in the absence of chemical substance,yeast gene YFR052W,1.8
same,The level of expressed mRNA in the presence of chemical substance/The level of expressed mRNA in the absence of chemical substance,yeast gene YGL073W,0.8
same,The level of expressed mRNA in the presence of chemical substance/The level of expressed mRNA in the absence of chemical substance,yeast gene YGL115W,0.9
same,The level of expressed mRNA in the presence of chemical substance/The level of expressed mRNA in the absence of chemical substance,yeast gene YGL181W,1.0
same,The level of expressed mRNA in the presence of chemical substance/The level of expressed mRNA in the absence of chemical substance,yeast gene YGR088W,1.1
same,The level of expressed mRNA in the presence of chemical substance/The level of expressed mRNA in the absence of chemical substance,yeast gene YHL028W,1.5
same,The level of expressed mRNA in the presence of chemical substance/The level of expressed mRNA in the absence of chemical substance,yeast gene YHL046C,1.1
same,The level of expressed mRNA in the presence of chemical substance/The level of expressed mRNA in the absence of chemical substance,yeast gene YHR030C,0.7
same,The level of expressed mRNA in the presence of chemical substance/The level of expressed mRNA in the absence of chemical substance,yeast gene YHR057C,1.1
same,The level of expressed mRNA in the presence of chemical substance/The level of expressed mRNA in the absence of chemical substance,yeast gene YHR104W,1.0
same,The level of expressed mRNA in the presence of chemical substance/The level of expressed mRNA in the absence of chemical substance,yeast gene YIL011W,0.6
same,The level of expressed mRNA in the presence of chemical substance/The level of expressed mRNA in the absence of chemical substance,yeast gene YIL033C,1.1
same,The level of expressed mRNA in the presence of chemical substance/The level of expressed mRNA in the absence of chemical substance,yeast gene YIR037W,1.3
same,The level of expressed mRNA in the presence of chemical substance/The level of expressed mRNA in the absence of chemical substance,yeast gene YIR038C,1.1
same,The level of expressed mRNA in the presence of chemical substance/The level of expressed mRNA in the absence of chemical substance,yeast gene YJL128C,1.0
same,The level of expressed mRNA in the presence of chemical substance/The level of expressed mRNA in the absence of chemical substance,yeast gene YJL158C,1.1
same,The level of expressed mRNA in the presence of chemical substance/The level of expressed mRNA in the absence of chemical substance,yeast gene YJL159W,1.0
same,The level of expressed mRNA in the presence of chemical substance/The level of expressed mRNA in the absence of chemical substance,yeast gene YJL165C,0.9
same,The level of expressed mRNA in the presence of chemical substance/The level of expressed mRNA in the absence of chemical substance,yeast gene YJR045C,1.0
same,The level of expressed mRNA in the presence of chemical substance/The level of expressed mRNA in the absence of chemical substance,yeast gene YJR090C,0.8
same,The level of expressed mRNA in the presence of chemical substance/The level of expressed mRNA in the absence of chemical substance,yeast gene YKL161C,0.9
same,The level of expressed mRNA in the presence of chemical substance/The level of expressed mRNA in the absence of chemical substance,yeast gene YKL163W,0.9
same,The level of expressed mRNA in the presence of chemical substance/The level of expressed mRNA in the absence of chemical substance,yeast gene YKL164C,0.8
same,The level of expressed mRNA in the presence of chemical substance/The level of expressed mRNA in the absence of chemical substance,yeast gene YKL210W,1.3
same,The level of expressed mRNA in the presence of chemical substance/The level of expressed mRNA in the absence of chemical substance,yeast gene YKR053C,0.7
same,The level of expressed mRNA in the presence of chemical substance/The level of expressed mRNA in the absence of chemical substance,yeast gene YLL024C,1.0
same,The level of expressed mRNA in the presence of chemical substance/The level of expressed mRNA in the absence of chemical substance,yeast gene YLL026W,1.9
same,The level of expressed mRNA in the presence of chemical substance/The level of expressed mRNA in the absence of chemical substance,yeast gene YLL039C,1.0
same,The level of expressed mRNA in the presence of chemical substance/The level of expressed mRNA in the absence of chemical substance,yeast gene YLL060C,1.1
same,The level of expressed mRNA in the presence of chemical substance/The level of expressed mRNA in the absence of chemical substance,yeast gene YLR006C,0.7
same,The level of expressed mRNA in the presence of chemical substance/The level of expressed mRNA in the absence of chemical substance,yeast gene YLR109W,1.6
same,The level of expressed mRNA in the presence of chemical substance/The level of expressed mRNA in the absence of chemical substance,yeast gene YLR259C,0.7
same,The level of expressed mRNA in the presence of chemical substance/The level of expressed mRNA in the absence of chemical substance,yeast gene YML007W,1.1
same,The level of expressed mRNA in the presence of chemical substance/The level of expressed mRNA in the absence of chemical substance,yeast gene YML070W,1.3
same,The level of expressed mRNA in the presence of chemical substance/The level of expressed mRNA in the absence of chemical substance,yeast gene YMR021C,0.8
same,The level of expressed mRNA in the presence of chemical substance/The level of expressed mRNA in the absence of chemical substance,yeast gene YMR173W,1.4
same,The level of expressed mRNA in the presence of chemical substance/The level of expressed mRNA in the absence of chemical substance,yeast gene YMR186W,1.0
same,The level of expressed mRNA in the presence of chemical substance/The level of expressed mRNA in the absence of chemical substance,yeast gene YNL064C,0.8
same,The level of expressed mRNA in the presence of chemical substance/The level of expressed mRNA in the absence of chemical substance,yeast gene YNL160W,1.4
same,The level of expressed mRNA in the presence of chemical substance/The level of expressed mRNA in the absence of chemical substance,yeast gene YNL241C,2.0
same,The level of expressed mRNA in the presence of chemical substance/The level of expressed mRNA in the absence of chemical substance,yeast gene YNR076W,0.7
same,The level of expressed mRNA in the presence of chemical substance/The level of expressed mRNA in the absence of chemical substance,yeast gene YOL064C,0.9
same,The level of expressed mRNA in the presence of chemical substance/The level of expressed mRNA in the absence of chemical substance,yeast gene YOL161C,1.3
same,The level of expressed mRNA in the presence of chemical substance/The level of expressed mRNA in the absence of chemical substance,yeast gene YOR008C,0.7
same,The level of expressed mRNA in the presence of chemical substance/The level of expressed mRNA in the absence of chemical substance,yeast gene YOR009W,0.4
same,The level of expressed mRNA in the presence of chemical substance/The level of expressed mRNA in the absence of chemical substance,yeast gene YOR010C,0.5
same,The level of expressed mRNA in the presence of chemical substance/The level of expressed mRNA in the absence of chemical substance,yeast gene YOR027W,1.3
same,The level of expressed mRNA in the presence of chemical substance/The level of expressed mRNA in the absence of chemical substance,yeast gene YOR208W,1.2
same,The level of expressed mRNA in the presence of chemical substance/The level of expressed mRNA in the absence of chemical substance,yeast gene YPL059W,0.8
same,The level of expressed mRNA in the presence of chemical substance/The level of expressed mRNA in the absence of chemical substance,yeast gene YPL106C,1.1
same,The level of expressed mRNA in the presence of chemical substance/The level of expressed mRNA in the absence of chemical substance,yeast gene YPL140C,0.8
same,The level of expressed mRNA in the presence of chemical substance/The level of expressed mRNA in the absence of chemical substance,yeast gene YPL194W,0.9
same,The level of expressed mRNA in the presence of chemical substance/The level of expressed mRNA in the absence of chemical substance,yeast gene YPL223C,0.9
same,The level of expressed mRNA in the presence of chemical substance/The level of expressed mRNA in the absence of chemical substance,yeast gene YPL240C,0.8
same,The level of expressed mRNA in the presence of chemical substance/The level of expressed mRNA in the absence of chemical substance,yeast gene YPR005C,0.6
same,The level of expressed mRNA in the presence of chemical substance/The level of expressed mRNA in the absence of chemical substance,yeast gene YPR026W,1.2
